Columns and labels:
5-HT3A-A1 = molecular target: T1, 5-HT3A-A1 (Mus musculus, UniProt P23979, DELINS338-452A); experiment: Radioactive 5-HT binding to oocytes expressing 5-HT3A-A1; details: 150 nM [3H]5-HT + 10 µM 5-HT, 5 min, 45 s cold wash
T1 construct: expressed in transfected cells; host or cells: Xenopus laevis oocytes injected with mRNA
Protocol: (§1) Assays were terminated by five washes with ice cold CFFR buffer, followed by solubilization of the oocytes individually with 200 µl 5% SDS. Total wash time was 45 s. […] All data points represent the average of at least fifteen individual oocytes derived from three separate oocyte isolations.
(§2) To determine the extent of non-specific binding, all binding experiments were performed in parallel with diethylpyrocarbonate-(DEPC)-treated-water injected oocytes or uninjected oocytes.

[1] = molecular target: T2, 5-HT3A M3M4 loop SQPAAAA construct (Mus musculus, UniProt P23979); experiment: Two-electrode voltage clamp, oocytes expressing SQPAAAA loop construct; format: cell-based; details: 10 µM 5-HT, Xenopus oocytes
T2 construct: expressed in transfected cells; host or cells: Xenopus laevis oocytes injected with mRNA
Description: (§3) The mouse 5-HT3A cDNA with an N-terminal V5 epitope tag was cloned into the pXOON vector as previously described, and is referred to in this paper as “wild-type” (WT). The starting construct for all of the M3M4 loop replacement constructs used in this work was the 5-HT3A-ΔM3M4 construct formed by splicing the cytoplasmic end of M3 (M3-LVHK/QDLQRP…) to the cytoplasmic end of M4 (…WLRVGY/VLDRLL-M4). The splice was made at the site of the “/” to yield the sequence M3-LVHK/VLDRLL-M4 [34]. This removed 115 residues predicted to form the M3M4 loop.
(§4) The construction of the 5-HT3A-glvM3M4 chimera with the 5-HT3A M3M4 loop replaced by the GLIC heptapeptide M3M4 loop (SQPARAA) was described previously. Point mutations, alanine and Gly-Ser-Ala insertions into the 5-HT3A-ΔM3M4 construct were generated with the Quikchange site directed mutagenesis procedure (Stratagene, La Jolla, CA). […]
(§5) Currents were recorded under two-electrode voltage clamp from oocytes 2–5 d post-injection as described previously. […]
(§6) Desensitization rates were determined by fitting a single exponential decay function to the current data with Prism 4 software (GraphPad Software). Significant differences compared with wild-type were determined by a one-way ANOVA (p<0.05) using Dunnett's multiple comparison post-hoc test (p<0.05). […]

[2] = molecular target: T3, 5-HT3A M3M4 loop SQPAARA construct (Mus musculus, UniProt P23979); experiment: Two-electrode voltage clamp, oocytes expressing SQPAARA loop construct; format: cell-based; details: 10 µM 5-HT, Xenopus oocytes
T3 construct: expressed in transfected cells; host or cells: Xenopus laevis oocytes injected with mRNA
Description: as §3, §4, §5, §6

[3] = molecular target: T4, 5-HT3A M3M4 loop GSAGSAGSA mutant (Mus musculus, UniProt P23979); experiment: Two-electrode voltage clamp, oocytes expressing […] M3M4 mutant; format: cell-based; details: Xenopus oocytes
T4 construct: expressed in transfected cells; host or cells: Xenopus laevis oocytes injected with mRNA
Description: as §3, §4, §5, §6

[4] = molecular target: T5, 5-HT3A M3M4 loop SQAPARA construct (Mus musculus, UniProt P23979); experiment: Two-electrode voltage clamp, oocytes expressing SQAPARA loop construct; format: cell-based; details: 10 µM 5-HT, Xenopus oocytes
T5 construct: expressed in transfected cells; host or cells: Xenopus laevis oocytes injected with mRNA
Description: as §3, §4, §5, §6

5-HT3A-A7 = molecular target: T6, 5-HT3A-A7 (Mus musculus, UniProt P23979); experiment: Radioactive 5-HT binding to oocytes expressing 5-HT3A-A7; details: 150 nM [3H]5-HT + 10 µM 5-HT, 5 min, 45 s cold wash
T6 construct: expressed in transfected cells; host or cells: Xenopus laevis oocytes injected with mRNA
Protocol: as §1, §2

[5] = molecular target: T7, 5-HT3A-A2 (M3M4 loop replaced by two alanines) (Mus musculus, UniProt P23979, DELINS338-452AA); experiment: Two-electrode voltage clamp, oocytes expressing 5-HT3A-A2; format: cell-based
T7 construct: expressed in transfected cells; host or cells: Xenopus laevis oocytes injected with mRNA
T7 sequence (P23979 with tags, fused parts or gaps isoform P23979-2 DELINS338-452AA limits assumed): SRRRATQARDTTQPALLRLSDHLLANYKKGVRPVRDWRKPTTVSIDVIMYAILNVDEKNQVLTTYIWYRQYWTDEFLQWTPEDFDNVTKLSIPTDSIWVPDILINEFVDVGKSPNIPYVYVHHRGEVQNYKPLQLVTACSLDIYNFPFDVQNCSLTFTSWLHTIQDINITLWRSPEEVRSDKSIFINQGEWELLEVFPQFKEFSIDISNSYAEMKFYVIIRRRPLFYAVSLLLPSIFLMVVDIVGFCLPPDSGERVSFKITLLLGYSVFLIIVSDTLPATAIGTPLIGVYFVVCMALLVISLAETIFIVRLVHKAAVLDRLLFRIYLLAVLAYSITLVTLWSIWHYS
Description: as §3
The construction of the 5-HT3A-glvM3M4 chimera with the 5-HT3A M3M4 loop replaced by the GLIC heptapeptide M3M4 loop (SQPARAA) was described previously. Point mutations, alanine and Gly-Ser-Ala insertions into the 5-HT3A-ΔM3M4 construct were generated with the Quikchange site directed mutagenesis procedure (Stratagene, La Jolla, CA). The entire coding region of all mutant constructs was verified by DNA sequencing (Albert Einstein College of Medicine DNA Sequencing Facility). The pXOON plasmid was linearized using NheI and capped mRNA prepared with T7 RNA polymerase (mMessage mMachine, Ambion, Austin, TX).
Use of Xenopus laevis in this study was carried out in strict accordance with the recommendations in the Guide for the Care and Use of Laboratory Animals of the National Institutes of Health. The protocol was approved by the Albert Einstein College of Medicine Animal Care and Use Committee (Protocol Number: 20081201). All surgery was performed under tricaine anesthesia, and all efforts were made to minimize suffering. Oocyctes were harvested from Xenopus (Nasco Science, Fort Atkinson, WI) anesthetized with 0.15% tricaine. Oocyctes were defolliculated by incubation in 2 mg ml^−1 Type 1A collagenase (Sigma-Aldrich, St. Louis, MO) in OR2 (85 mM NaCl, 2 mM KCl, 1 mM MgCl2, and 5 mM HEPES; pH adjusted to 7.5 with NaOH) for a 60 or 75 min. Oocytes were washed in OR2 and stored at 16°C in SOS medium: 100 mM NaCl, 2 mM KCl, 1 mM MgCl2, 1.8 mM CaCl2 5 mM HEPES, pH 7.5 with 100 IU ml^−1 penicillin, 100 µg ml^−1 streptomycin, and 250 ng ml^−1 amphotericin B (Invitrogen, Carlsbad, CA) and 5% horse serum (Sigma-Aldrich). 24 hrs following isolation, oocyctes were injected with 23 nl (2.3 ng) of mRNA and were kept in SOS media for 2–5 d at 16°C.
Currents were recorded under two-electrode voltage clamp from oocytes 2–5 d post-injection as described previously. […] The perfusion chamber volume was 200 µl. […]
as §6

5-HT3A-A5 = molecular target: T8, 5-HT3A-A5 (Mus musculus, UniProt P23979); experiment: Radioactive 5-HT binding to oocytes expressing 5-HT3A-A5; details: 150 nM [3H]5-HT + 10 µM 5-HT, 5 min, 45 s cold wash
T8 construct: expressed in transfected cells; host or cells: Xenopus laevis oocytes injected with mRNA
Protocol: as §1, §2

[6] = molecular target: T9, 5-HT3A construct with single proline in place of the single alanine (Mus musculus, UniProt P23979, DELINS338-452P); experiment: Two-electrode voltage clamp, oocytes expressing single proline loop construct; format: cell-based; details: Xenopus oocytes, data not shown
T9 construct: expressed in transfected cells; host or cells: Xenopus laevis oocytes injected with mRNA
Description: as §3, §4, §5, §6

[7] = molecular target: T10, 5-HT3A M3M4 loop GSA mutant (Mus musculus, UniProt P23979, DELINS338-452GSA); experiment: Two-electrode voltage clamp, oocytes expressing GSA M3M4 mutant; format: cell-based; details: 10 µM 5-HT, Xenopus oocytes
T10 construct: expressed in transfected cells; host or cells: Xenopus laevis oocytes injected with mRNA
Description: as §3, §4, §5, §6

5-HT3A-A2 = molecular target: T11, 5-HT3A-A2 (Mus musculus, UniProt P23979, DELINS338-452AA); experiment: Radioactive 5-HT binding to oocytes expressing 5-HT3A-A2; details: 150 nM [3H]5-HT + 10 µM 5-HT, 5 min, 45 s cold wash
T11 construct: expressed in transfected cells; host or cells: Xenopus laevis oocytes injected with mRNA
Protocol: as §1, §2

T1 sequence (P23979 with tags, fused parts or gaps isoform P23979-2 DELINS338-452A limits assumed): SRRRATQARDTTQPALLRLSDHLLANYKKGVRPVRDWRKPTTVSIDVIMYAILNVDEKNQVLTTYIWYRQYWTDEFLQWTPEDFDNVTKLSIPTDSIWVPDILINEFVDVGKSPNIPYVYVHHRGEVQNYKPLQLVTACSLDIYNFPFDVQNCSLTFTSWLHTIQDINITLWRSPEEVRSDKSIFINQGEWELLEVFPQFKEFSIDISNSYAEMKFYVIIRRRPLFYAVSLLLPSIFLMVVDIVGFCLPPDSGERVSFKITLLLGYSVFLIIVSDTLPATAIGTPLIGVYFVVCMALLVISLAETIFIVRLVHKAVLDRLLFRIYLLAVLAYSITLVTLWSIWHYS
T5 sequence (P23979 with tags, fused parts or gaps): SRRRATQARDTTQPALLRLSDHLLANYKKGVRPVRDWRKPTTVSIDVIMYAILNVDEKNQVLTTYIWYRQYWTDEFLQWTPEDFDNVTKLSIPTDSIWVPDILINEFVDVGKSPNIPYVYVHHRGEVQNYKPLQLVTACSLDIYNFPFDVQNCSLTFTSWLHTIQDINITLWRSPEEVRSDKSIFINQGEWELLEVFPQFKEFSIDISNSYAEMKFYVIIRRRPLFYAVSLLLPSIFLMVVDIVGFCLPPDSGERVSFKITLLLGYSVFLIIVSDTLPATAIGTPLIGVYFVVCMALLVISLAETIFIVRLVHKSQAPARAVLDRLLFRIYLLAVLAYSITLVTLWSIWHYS
T4 sequence (P23979 with tags, fused parts or gaps isoform P23979-2 limits assumed, change not shown): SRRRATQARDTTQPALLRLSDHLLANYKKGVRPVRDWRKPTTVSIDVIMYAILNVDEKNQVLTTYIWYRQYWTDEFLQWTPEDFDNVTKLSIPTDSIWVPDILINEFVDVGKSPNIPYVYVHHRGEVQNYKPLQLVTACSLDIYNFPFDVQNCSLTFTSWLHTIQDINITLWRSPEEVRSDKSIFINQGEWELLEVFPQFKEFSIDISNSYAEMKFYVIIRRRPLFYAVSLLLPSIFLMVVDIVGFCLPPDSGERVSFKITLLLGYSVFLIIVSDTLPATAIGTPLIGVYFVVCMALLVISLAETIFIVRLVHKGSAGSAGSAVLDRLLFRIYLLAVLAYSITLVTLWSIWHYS
T6 sequence (P23979 with tags, fused parts or gaps isoform P23979-2 limits assumed): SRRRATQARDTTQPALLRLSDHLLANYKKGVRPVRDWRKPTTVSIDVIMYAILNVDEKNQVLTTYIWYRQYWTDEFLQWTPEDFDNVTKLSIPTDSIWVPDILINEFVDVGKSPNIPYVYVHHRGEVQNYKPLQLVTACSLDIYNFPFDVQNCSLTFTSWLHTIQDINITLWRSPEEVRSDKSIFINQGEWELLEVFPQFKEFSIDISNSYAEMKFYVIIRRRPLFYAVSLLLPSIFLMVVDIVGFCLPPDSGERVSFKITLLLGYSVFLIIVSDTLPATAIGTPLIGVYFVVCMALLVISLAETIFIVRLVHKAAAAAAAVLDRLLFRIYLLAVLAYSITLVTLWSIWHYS
T9 sequence (P23979 with tags, fused parts or gaps isoform P23979-2 DELINS338-452P limits assumed): as the sequence (P23979 with tags, fused parts or gaps isoform P23979-2 DELINS338-452A limits assumed) above, with A315P counted along it
T2 sequence (P23979 with tags, fused parts or gaps): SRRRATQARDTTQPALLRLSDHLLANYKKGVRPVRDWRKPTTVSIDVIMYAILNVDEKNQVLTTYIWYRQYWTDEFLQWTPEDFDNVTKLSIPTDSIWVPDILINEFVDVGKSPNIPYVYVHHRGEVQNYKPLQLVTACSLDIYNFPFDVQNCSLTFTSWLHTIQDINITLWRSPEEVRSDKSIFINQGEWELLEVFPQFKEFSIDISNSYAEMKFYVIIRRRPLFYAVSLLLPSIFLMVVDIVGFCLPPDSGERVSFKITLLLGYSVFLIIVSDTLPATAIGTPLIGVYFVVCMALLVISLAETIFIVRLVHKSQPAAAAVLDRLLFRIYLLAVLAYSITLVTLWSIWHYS
T8 sequence (P23979 with tags, fused parts or gaps isoform P23979-2 limits assumed): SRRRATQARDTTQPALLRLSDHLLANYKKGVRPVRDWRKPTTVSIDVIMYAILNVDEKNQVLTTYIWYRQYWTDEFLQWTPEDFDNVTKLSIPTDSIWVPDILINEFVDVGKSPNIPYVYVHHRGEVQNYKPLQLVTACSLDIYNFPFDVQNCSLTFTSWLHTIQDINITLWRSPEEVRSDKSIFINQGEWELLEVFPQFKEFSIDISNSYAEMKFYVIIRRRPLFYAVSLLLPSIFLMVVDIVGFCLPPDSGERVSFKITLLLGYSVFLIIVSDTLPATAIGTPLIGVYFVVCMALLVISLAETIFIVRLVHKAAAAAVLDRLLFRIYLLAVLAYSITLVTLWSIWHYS
T3 sequence (P23979 with tags, fused parts or gaps): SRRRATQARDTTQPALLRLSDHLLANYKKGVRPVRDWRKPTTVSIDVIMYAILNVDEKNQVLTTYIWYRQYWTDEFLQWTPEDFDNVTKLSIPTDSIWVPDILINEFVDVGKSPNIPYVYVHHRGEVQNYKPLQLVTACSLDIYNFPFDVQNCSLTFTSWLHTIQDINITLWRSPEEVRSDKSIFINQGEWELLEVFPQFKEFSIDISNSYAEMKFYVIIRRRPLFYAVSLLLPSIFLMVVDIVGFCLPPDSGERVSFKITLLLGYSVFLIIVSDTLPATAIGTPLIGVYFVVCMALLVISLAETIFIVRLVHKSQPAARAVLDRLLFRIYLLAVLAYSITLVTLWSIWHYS
T10 sequence (P23979 with tags, fused parts or gaps isoform P23979-2 DELINS338-452GSA limits assumed): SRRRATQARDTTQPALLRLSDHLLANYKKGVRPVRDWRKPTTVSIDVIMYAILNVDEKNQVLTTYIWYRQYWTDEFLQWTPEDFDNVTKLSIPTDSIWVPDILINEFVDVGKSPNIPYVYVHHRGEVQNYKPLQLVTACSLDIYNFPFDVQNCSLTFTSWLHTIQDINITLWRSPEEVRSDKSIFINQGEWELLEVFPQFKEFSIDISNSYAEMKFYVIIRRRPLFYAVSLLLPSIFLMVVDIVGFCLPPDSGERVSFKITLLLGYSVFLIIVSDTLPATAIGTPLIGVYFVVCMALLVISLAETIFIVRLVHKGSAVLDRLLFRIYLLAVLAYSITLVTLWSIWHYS

## NCCc1c[nH]c2ccc(O)cc12 [5-HT, 5-hydroxytryptamine]
5-HT3A-A1
  Radiolabeled 5-HT binding to oocytes: undetectable
[1]
  5-HT induced current: large currents
[2]
  Peak current: 320±25 nA
[3]
  5-HT induced current: no detectable currents
[4]
  Peak current: 87±30 nA
5-HT3A-A7
  Radiolabeled 5-HT bound per oocyte: 0.40±0.08 pmol per oocyte
[5]
  nH (Hill coefficient): 2.0±0.3
[5]; 10 µM 5-HT
  10–90% Activation rise time: 617 ± 32 ms
[5]; 10 µM 5-HT, Xenopus oocytes, -60 mV
  Imax (peak current): 6900±260 nA
[5]; prolonged 10 µM 5-HT
  Desensitization time constant τ: 43 ± 4 s
5-HT3A-A5
  Radiolabeled 5-HT bound per oocyte: 0.40±0.03 pmol per oocyte
[6]
  5-HT induced current: neither construct generated any 5-HT induced currents
[7]
  5-HT induced current: 50±12 nA
5-HT3A-A2
  Radiolabeled 5-HT bound per oocyte: 0.33±0.06 pmol per oocyte

— article PMC3335078, “Length and Amino Acid Sequence of Peptides Substituted for the 5-HT3A Receptor M3M4 Loop May Affect Channel Expression and Desensitization” (PLoS ONE, 2012)
